# According to patent US8103455B2, “Method of assessing the proliferation or differentiation behaviour of a population of target cells in a biological system” (Medical Research Council, priority 2006, dated 2012):
# Tests used:
# Format in all cases: in vivo, mouse
# [1] = test system: mitotic spindles of tail IFE; assay: Analysis of mitotic spindle orientation in DAPI stained epidermal wholemounts; settings: ATRA treatment, topical (3 months per figure legend)
# Method: (§1) All trans retinoic acid (Sigma) in ethanol, propanediol 70:30 was applied topically to tail skin and shaved back skin (0.5 ml each) 5 days a week for 3 months at 0.33 mM or daily for 2 weeks at 1 mM.
# (§2) Two protocols were used: (1) Mice were induced and after a three month interval treated with either 0.33 mM all trans retinoic acid (ATRA) or vehicle alone for a further 3 months. (2) Mice were treated with 1 mM all trans retinoic acid (ATRA) or vehicle alone for 2 weeks, beginning immediately after induction.
# basal cells of tail IFE = assay: Proliferation rate of basal cells by Ki67 staining; settings: ATRA treated mice, topical; controls 16.5+/-2.2%
# Method: (§3) Clone size was determined by Z stack confocal imaging of at least 50 clones containing at least one basal cell in each mouse at each time point. […] The percentage of Ki67 positive cells was determined by imaging at least 1500 basal cells in multiple fields from at least 3 mice.
# as §1, §2
# [2] = test system: epidermal progenitor cells (EPC) of tail epidermis; assay: Clone size distribution of EYFP-labelled epidermal progenitor cell clones after topical retinoid treatment, fitted to the model
# Method: All animal experiments were conducted as specified by Home Office Project License. The generation of AhcreERT and R26EYFP/EYFP mice has been described previously^15,16. […] Epidermal wholemounts were prepared as described^14. For analysis of back epidermis, 60 μm cryosections were used.
# as §3, §1, §2
smiles,measurement,setting,value
"CC1=C(/C=C/C(C)=C/C=C/C(C)=C/C(=O)O)C(C)(C)CCC1 [ATRA, all trans retinoic acid]",orientation of mitotic spindles,[1],did not alter the orientation of mitotic spindles
same,proliferation rate assessed by Ki67 staining (mean+/-sem),basal cells of tail IFE,57.0+/−3.7%
same,AD (asymmetric division) rate from fit of model to two cell clone distribution,"[2]; at two weeks, both protocols, unchanged from wildtype",84%
same,clone size,"[2]; both protocols: 0.33 mM for 3 months starting 3 months after induction, 1 mM for 2 weeks from induction, versus vehicle",increase substantially
same,"EPC division rate, factor of increase","[2]; fit of model to two cell clone distribution at two weeks, vehicle factor 1.4",22
